Reference: ChEMBL document CHEMBL1201862, “PubChem BioAssay data set” (2004)
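Five compound concentrations were applied to cells in 96-well plates for 48 hours; endpoints were derived by simple linear interpolation of the resulting dose-response curve. GI50 is the concentration that inhibits growth by half.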 Calls of active or inactive are those of the source. Rule as the data show it: active = GI50 up to about 1.1 µM and inactive = higher.

Columns and labels:
Assay in all cases: NCI anticancer screen, dose series, 48 h
RXF 631 = system: RXF 631
SNB-78 = system: SNB-78
DMS-114 = system: DMS-114
M19-MEL = system: M19-MEL
DLD-1 = system: DLD-1
KM-20L2 = system: KM-20L2
DMS-273 = system: DMS-273
HOP-18 = system: HOP-18
LXFL 529 = system: LXFL 529

| SMILES | GI50 (RXF 631) | GI50 (SNB-78) | GI50 (DMS-114) | GI50 (M19-MEL) | GI50 (DLD-1) | GI50 (KM-20L2) | GI50 (DMS-273) | GI50 (HOP-18) | GI50 (LXFL 529) |
| --- | --- | --- | --- | --- | --- | --- | --- | --- | --- |
| CCN(CC)c1ccc(C(=C2C=CC(=[N+](CC)CC)C=C2)c2ccc(N(CC)CC)cc2)cc1 | 0.194 µM (active) | 0.398 µM (active) | 0.0507 µM (active) | 0.0948 µM (active) | 0.063 µM (active) | 0.184 µM (active) | 0.137 µM (active) |  |  |
| CN(C)CC1(C)CC/C(=C\c2ccccc2)C1=O (configuration not stated) | 49 µM (inactive) | > 100 µM (inactive) | > 100 µM (inactive) | > 100 µM (inactive) | > 100 µM (inactive) | > 100 µM (inactive) | > 100 µM (inactive) | > 100 µM (inactive) |  |
| S=c1nc(N2CCCCC2)ss1 | 29.4 µM (inactive) | 32.2 µM (inactive) | 19.7 µM (inactive) | 18.2 µM (inactive) | 26.7 µM (inactive) | > 100 µM (inactive) | 17.5 µM (inactive) | 40.6 µM (inactive) | 15.1 µM (inactive) |
| COC(=O)N/N=C/C(=C/Nc1ccccc1)[N+](=O)[O-] | > 100 µM (inactive) |  | > 100 µM (inactive) | > 100 µM (inactive) | > 100 µM (inactive) | > 100 µM (inactive) | > 100 µM (inactive) | > 100 µM (inactive) | > 100 µM (inactive) |
| O=C1CCCC[C@H]1[C@H]1CCC[C@@H]([C@H]2CCCCC2=O)C1=O | > 100 µM (inactive) | 3.44 µM (inactive) |  | > 100 µM (inactive) | > 100 µM (inactive) | > 100 µM (inactive) | > 100 µM (inactive) | > 100 µM (inactive) | > 100 µM (inactive) |
| C/C(=N\NC(=O)CC(=O)Nc1ccc(Cl)cc1)c1cc2ccccc2oc1=O |  |  | > 100 µM (inactive) | > 100 µM (inactive) | > 100 µM (inactive) | > 100 µM (inactive) | > 100 µM (inactive) | > 100 µM (inactive) |  |
| CCCN(CCCCC(NC(C)=O)C(=O)NCc1ccccc1)C(=O)N(C)N=O (configuration not stated) |  | > 100 µM (inactive) | > 100 µM (inactive) | > 100 µM (inactive) | > 100 µM (inactive) | > 100 µM (inactive) | > 100 µM (inactive) |  | > 100 µM (inactive) |
| N=C(N)NS(=O)(=O)c1ccc(NCc2c3ccccc3nc3ccccc23)cc1 | 4.82 µM (inactive) | 23.1 µM (inactive) | 0.157 µM (active) | 10 µM (inactive) | 23.5 µM (inactive) | 57.9 µM (inactive) | 2.1 µM (inactive) | 9.18 µM (inactive) | 12.8 µM (inactive) |
| C/C(=N\NC(N)=S)C(CN(CC(C)C)CC(C)C)C(=O)Nc1ccc(C)cc1C (configuration not stated) |  | > 100 µM (inactive) | > 100 µM (inactive) | > 100 µM (inactive) | > 100 µM (inactive) | > 100 µM (inactive) | > 100 µM (inactive) | > 100 µM (inactive) | > 100 µM (inactive) |
| Cc1ccccc1C1=[N+]([O-])c2ccc(Cl)cc2C1=O | 3.72 µM (inactive) |  |  | 8.05 µM (inactive) | 7.41 µM (inactive) | 4.51 µM (inactive) |  | 14.1 µM (inactive) | 12 µM (inactive) |
| O=S(=O)(c1ccccc1)N1CCC1c1ccccc1 (configuration not stated) | > 100 µM (inactive) | > 100 µM (inactive) | 50.1 µM (inactive) | > 100 µM (inactive) |  | > 100 µM (inactive) | > 100 µM (inactive) | 51.5 µM (inactive) |  |
| Sc1ccccc1S | > 100 µM (inactive) | > 100 µM (inactive) | > 100 µM (inactive) | > 100 µM (inactive) | > 100 µM (inactive) | > 100 µM (inactive) | > 100 µM (inactive) | > 100 µM (inactive) | > 100 µM (inactive) |
| CCCCCCCC(=O)OCC1OC(n2cc(F)c(=O)[nH]c2=O)C(N)C(O)C1O (configuration not stated) |  | > 100 µM (inactive) | > 100 µM (inactive) | > 100 µM (inactive) | > 100 µM (inactive) | > 100 µM (inactive) | > 100 µM (inactive) | > 100 µM (inactive) | > 100 µM (inactive) |
| COc1cccc2c1C(=O)c1c(O)c3c(c(O)c1C2=O)CC(O)(C(C)=O)CC3OC1CC([N+](C)(C)C)C(O)C(C)O1 (configuration not stated) | 31.1 µM (inactive) | > 100 µM (inactive) | > 100 µM (inactive) | 70.6 µM (inactive) | 91.2 µM (inactive) | > 100 µM (inactive) | 27.5 µM (inactive) | > 100 µM (inactive) | 64.9 µM (inactive) |
| N#C[C-](C#N)[n+]1ccc(Cl)cc1 | 17.4 µM (inactive) | 17.9 µM (inactive) | 13.4 µM (inactive) | 12.4 µM (inactive) | 11.5 µM (inactive) | 24.2 µM (inactive) | 18.7 µM (inactive) |  | 13.6 µM (inactive) |
| COS(=O)CCOC(=O)c1ccccc1SSc1ccccc1C(=O)OCCS(=O)OC (configuration not stated) |  | > 100 µM (inactive) | 16 µM (inactive) | 21.2 µM (inactive) | 34.5 µM (inactive) | 61 µM (inactive) | 26.4 µM (inactive) | > 100 µM (inactive) | 18.5 µM (inactive) |
| CCN(CC)CCCNc1ncc(C)c2c1c1ccc3c(O)cccc3c1n2C |  | 14.2 µM (inactive) | 1.39 µM (inactive) |  | 1.47 µM (inactive) | 3.07 µM (inactive) | 0.76 µM (active) | 0.635 µM (active) | 1.61 µM (inactive) |
| Nc1nc(CCc2n[nH]c(N)n2)n[nH]1 | > 100 µM (inactive) | > 100 µM (inactive) | > 100 µM (inactive) | > 100 µM (inactive) | > 100 µM (inactive) | > 100 µM (inactive) | > 100 µM (inactive) |  | > 100 µM (inactive) |
| Nc1ncnc2c1nc(Cl)n2[C@@H]1O[C@@H]2COP(=O)(O)O[C@H]2[C@H]1O [TOCLADESINE] |  | 165 µM (inactive) | 26.7 µM (inactive) | > 300 µM (inactive) | 3.81 µM (inactive) | 13.5 µM (inactive) | 3.15 µM (inactive) | > 109 µM (inactive) |  |
